Measured values from patent US12116343B2, “Inhibitors of APOL1 and methods of using same” (Vertex Pharmaceuticals Incorporated, priority 2020, dated 2024).
Where two headings read alike, the source gives them in different places.

Biological target: T1, G1 APOL1 (Homo sapiens, UniProt O14791, I384M/S342G)
T1 construct: expressed in transfected cells
T1 sequence (O14791 28-398 S342G/I384M): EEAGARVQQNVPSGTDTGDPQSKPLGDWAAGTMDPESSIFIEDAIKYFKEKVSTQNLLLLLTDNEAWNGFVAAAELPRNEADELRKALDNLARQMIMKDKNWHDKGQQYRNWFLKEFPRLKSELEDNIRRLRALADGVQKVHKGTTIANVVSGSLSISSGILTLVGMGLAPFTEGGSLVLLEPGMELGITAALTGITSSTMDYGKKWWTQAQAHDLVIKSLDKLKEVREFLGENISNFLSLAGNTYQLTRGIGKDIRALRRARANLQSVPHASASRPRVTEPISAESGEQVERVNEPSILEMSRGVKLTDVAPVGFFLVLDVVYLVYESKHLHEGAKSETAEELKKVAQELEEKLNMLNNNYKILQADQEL
Assay: Acute APOL1 Thallium Assay with inducible stable clones of HEK 293 cells
Format: cell-based
Conditions: read-out: Thallium Assay (IC50)
Excerpt: Acute APOL1 Thallium Assay with Inducible Stable Clones of HEK 293 Cells
Apolipoprotein L1 (APOL1) proteins form potassium-permeable cation pores in the plasma membrane. APOL1 risk variants (G1 and G2) induce greater potassium flux than G0 in HEK293 cells. This assay exploits the permeability of thallium (Tl+) through ligand-gated potassium channels. The dye produces a bright fluorescent signal upon binding to Tl+ conducted through potassium channels. The intensity of the Tl+ signal is proportional to the number of potassium channels in the open state. Therefore, it provides a functional indication of the potassium channel activities. During the initial dye-loading step, the Tl+ indicator dye as an acetoxymethyl (AM) ester enters the cells through passive diffusion. Cytoplasm esterases cleave the AM ester and relieve its active thallium-sensitive form. The cells are then stimulated with Tl+. The increase of fluorescence in the assay represents the influx of Tl+ into the cell specifically through the potassium channel (i.e. through APOL1 pores), providing a functional measurement of potassium channel/pore activity. The Thallium assay is conducted with cells expressing G1 APOL1.
APOL1 Cell Line (HEK T-Rex Stable Inducible Cell Line) • HEK T-Rex System • Tetracycline (Tet) inducible mammalian expression system. • Stably express the Tet repressor to regulate transcription. • Expression under the full-length CMV promoter. • APOL1 stable inducible cell line Clone used: G1 DC3.25
Tissue Culture Media • Cell Culture Medium • DMEM+10% FBS+P/S+5 μg/mL blasticidin+1 μg/mL puromycin. • 500 mL DMEM+55 mL FBS+5 mL P/S+280 μL blasticidin S HCl (10 mg/mL)+56 μL puromycin (10 mg/mL). • Cell Assay Medium • DMEM with 2% FBS+pen strep.
Instruments and Equipment • Nuaire cell culture hood, Cat. No. 540-600 • 37° C./5% CO2 incubator link to robotic arm, Liconic: STX110 • Molecular Devices FLIPR^Tetra High throughput cellular screening system, Cat. No. FT0324, Molecular Devices • ThermoFisher MultiDrop 384, Cat. No. 5840300 • Biotek Microfill, Cat. No. ASF1000A-4145 • BioRad TC10 cell counter, Cat. No. 145-0010 Assay Procedures
Cells Scaled Up from Frozen Vials • APOL1 G1 3.25 (HEK293 T-Rex) frozen vials: 5 million cells per vial • Step 1, Day 1: Defrost frozen vial into T-225. • Step 2, Day 5: (when 85% confluent): Split one T-225 at 3×10^6 cells per flask. • Step 3, Day 8: Splits cells to set up for the assay plates as described below.
T-Rex APOL1 HEK cells are split twice per week to keep the confluence state below 85% of the culture flask surface area. Cells can be kept until passage 25. • Cell Culture Medium • DMEM high glucose+10% FBS, +P/S, +5 μg/mL blasticidin, +1 μg/mL puromycin. • 500 mL DMEM, +55 mL FBS, +5 mL P/S, +280 μL blasicidin 10 mg/mL, +56 μL Puromycin 10 mg/mL. • Assay Media • Opti-MEM reduced serum medium from Invitrogen.
Preparation of Cell Assay Plates • Culture medium is removed from the x cm^2 T-flask by aspiration. • The cell monolayer is rinsed with PBS 1× at room temperature. PBS is removed by aspiration. • Cells are trypsinized using Trypsin. • The flasks are incubated at room temperature for 2-3 minutes. • Complete DMEM medium is then added. Cell suspension is then transferred to a 50 mL Falcon polypropylene tube. • Cells are then counted using a Biorad TC10 cell counter and the required amount of cells are centrifuged at 1200 RPM for 5 minutes. Required amount is 1.3×10^6 cells/mL APOL1 T-Rex HEK cells. • The pellet is suspended in the assay medium. • Using the MultiDrop, add 20 μL to each well (corresponds to 26000 cells total per well) of a 384-well black, transparent, flat bottom Poly-D coated plate. • Tetracycline as prepared in the following section is added to the cells before plating to induce APOL1 expression. • Plates are left at room temperature for 20 to 30 minutes before incubation at 37° C. and 5% CO2. […]

[1] = HEK 293 T-Rex cells expressing G1 APOL1

SMILES	IC50 (Table 24, Compounds 287 to 465)	IC50 [1]
O=C(N[C@H]1CCOC1)[C@H]1C[C@@H](c2c(-c3ccc(F)cc3)[nH]c3c(F)cc(F)cc32)C1 [Compound 246]		> 1 µM
CC(CO)NC(=O)[C@H]1C[C@@H](c2c(-c3ccc(F)cc3)[nH]c3c(F)cc(F)cc32)C1 (mixture of isomers) [Compound 243]		> 1 µM
Cn1cnc(CNC(=O)C2(F)CC(c3c(-c4ccc(F)cc4)[nH]c4c(F)cc(F)cc34)C2)c1 (stereo not shown) [Compound 286]		< 0.25 µM
C[C@H](CO)NC(=O)NC[C@H]1C[C@H](c2c(-c3ccc(F)cc3)[nH]c3c(F)cc(F)cc32)C1 [Compound 409]	> 1 µM	
O=C1NC[C@@H](O)[C@@H]1NC(=O)[C@H]1C[C@@H](c2c(-c3ccc(F)cc3)[nH]c3c(F)cc(F)cc32)C1 [Compound 277]		> 1 µM
CC(C)(O)CNC(=O)C1CC(Cc2c(-c3ccc(F)cc3)[nH]c3c(F)cc(F)cc23)C1 (stereo not shown) [Compound 318]	> 1 µM	
Cc1cc(CNC(=O)O[C@H]2C[C@H](c3c(-c4ccc(F)cc4)[nH]c4c(F)cc(F)cc43)C2)on1 [Compound 385]	> 1 µM	
O=C(NCc1cnn(CC(F)(F)F)c1)C1CC(Cc2c(-c3ccc(F)cc3)[nH]c3c(F)cc(F)cc23)C1 (stereo not shown) [Compound 331]	> 1 µM	
O=C(NC(CO)(CO)CO)[C@H]1C[C@@H](c2c(-c3ccc(F)cc3)[nH]c3c(F)cc(F)cc32)C1 [Compound 273]		0.25 to 1 µM
O=C(NCc1ccco1)O[C@H]1C[C@H](c2c(-c3ccc(F)cc3)[nH]c3c(F)cc(F)cc32)C1 [Compound 379]	> 1 µM	
Cc1cnc(CNC(=O)O[C@H]2C[C@H](c3c(-c4ccc(F)cc4)[nH]c4c(F)cc(F)cc43)C2)o1 [Compound 374]	> 1 µM	
O=C(NCC(O)CO)O[C@H]1C[C@H](c2c(-c3ccc(F)cc3)[nH]c3c(F)cc(F)cc32)C1 (stereo partly shown) [Compound 367]	> 1 µM	
O=C(CC1CC(c2c(-c3ccc(F)cc3)[nH]c3c(F)cc(F)cc23)C1)N[C@H](CO)C(F)(F)F (stereo partly shown) [Compound 461]	> 1 µM	
CC[C@@H](CO)NC(=O)[C@H]1C[C@@H](c2c(-c3ccc(F)cc3)[nH]c3c(F)cc(F)cc32)C1 [Compound 257]		> 1 µM
Cc1ccc(CNC(=O)O[C@H]2C[C@H](c3c(-c4ccc(F)cc4)[nH]c4c(F)cc(F)cc43)C2)o1 [Compound 375]	> 1 µM	

Continued, values first:

IC50 (Table 24, Compounds 287 to 465)	IC50 [1]	SMILES
> 1 µM		CO[C@H]1C[C@@H](NC(=O)O[C@H]2C[C@H](c3c(-c4ccc(F)cc4)[nH]c4c(F)cc(F)cc43)C2)C1 [Compound 390]
0.25 to 1 µM		CNC(=O)CN[C@H]1C[C@H](c2c(-c3ccc(F)cc3)[nH]c3c(F)cc(F)cc32)C1 [Compound 291]
> 1 µM		Cc1nn(C)cc1CNC(=O)C1CC(Cc2c(-c3ccc(F)cc3)[nH]c3c(F)cc(F)cc23)C1 (stereo not shown) [Compound 335]
> 1 µM		CC(O)C(C)NC(=O)O[C@H]1C[C@H](c2c(-c3ccc(F)cc3)[nH]c3c(F)cc(F)cc32)C1 (mixture of isomers) [Compound 363]
0.25 to 1 µM		C[C@H](NCC1CC(c2c(-c3ccc(F)cc3)[nH]c3c(F)cc(F)cc23)C1)C(=O)N(C)C (stereo partly shown) [Compound 434]
0.25 to 1 µM		O=C(NC1CC1)O[C@H]1C[C@H](c2c(-c3ccc(F)cc3)[nH]c3c(F)cc(F)cc32)C1 [Compound 358]
0.25 to 1 µM		O=C(CNC[C@H]1C[C@H](c2c(-c3ccc(F)cc3)[nH]c3c(F)cc(F)cc32)C1)NC1CC1 [Compound 449]
